The source of these data is patent US8557816B2, “Aurora kinase modulators and method of use” (Amgen Inc., priority 2007, dated 2013).

One test deals with T1, AuroraA-TPX2 (Homo sapiens, UniProt O14965).
T1 construct: 20 μL of AuroraA-TPX2 KD GST for a final volume of about 41 μL; GST
T1 sequence (O14965 133-383 limits assumed): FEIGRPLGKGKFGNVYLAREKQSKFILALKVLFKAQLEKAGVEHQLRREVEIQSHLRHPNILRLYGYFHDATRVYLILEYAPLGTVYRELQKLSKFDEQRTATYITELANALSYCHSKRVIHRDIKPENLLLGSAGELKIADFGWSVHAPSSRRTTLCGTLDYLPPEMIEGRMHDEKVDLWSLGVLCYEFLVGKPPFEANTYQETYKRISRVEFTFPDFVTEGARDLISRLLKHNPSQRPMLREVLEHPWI
T1 sequence (Q9ULW0 1-43 partner limits assumed): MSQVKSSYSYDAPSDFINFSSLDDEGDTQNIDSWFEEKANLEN
Put plainly: AuroraA-TPX2 Homogeneous Time Resolved Fluorescent (HTRF) kinase assay. Format: biochemical. Conditions: average; read-out: AurA_IC50_IP (uM Avg). The procedure, abridged:
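HTRF read-out (Eu 615 nm to APC 655 nm) of phosphorylated biotin-PLK, detected with 0.02 nM europium anti-phosphoPLK antibody and 0.0005 mg/mL SA-APC after overnight equilibration.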
For orientation: Time-resolved FRET reads energy transfer from a long-lived donor to a nearby acceptor.

Another test has as its target T2, AuroraB (Homo sapiens, UniProt Q96GD4).
T2 construct: 20 μL of AuroraB FL H is for a final volume of 41 μL; His
Put plainly: AuroraB Homogeneous Time Resolved Fluorescent (HTRF) kinase assay. Conditions: average; read-out: AurB_IC50_IP (uM Avg). The class given is biochemical. The gist of the method: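 Read-out is time-resolved FRET between europium anti-phospho-H3 antibody and streptavidin-APC, added in EDTA buffer to stop the reaction and equilibrated about 60 min (ex 320, em 615 and 655 nm). Preceding reaction: ~90 min, full-length enzyme, ATP, 0.1 μM biotin-Histone H3 substrate, Mg/Mn HEPES buffer pH 7.5.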

T2 sequence (Q96GD4 whole entry): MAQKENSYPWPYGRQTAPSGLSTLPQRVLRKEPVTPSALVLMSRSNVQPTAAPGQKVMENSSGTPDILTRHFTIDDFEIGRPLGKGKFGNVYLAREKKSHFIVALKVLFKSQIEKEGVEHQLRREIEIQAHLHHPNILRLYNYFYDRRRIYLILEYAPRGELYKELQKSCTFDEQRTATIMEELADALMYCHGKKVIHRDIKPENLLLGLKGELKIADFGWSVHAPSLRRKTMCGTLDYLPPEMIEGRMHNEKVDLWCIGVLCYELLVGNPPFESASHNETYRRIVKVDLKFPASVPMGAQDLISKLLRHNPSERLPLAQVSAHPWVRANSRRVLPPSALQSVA

On to `COc1cnc2c(Oc3ccc(Nc4nnc(-c5ccccc5)c5ccccc45)cc3F)ccnc2c1` [compound 89, N-(3-fluoro-4-((7-(methyloxy)-1,5-naphthyridin-4-yl)oxy)phenyl)-4-phenyl-1-phthalazinamine], for which the IC50 on AuroraA-TPX2 was 0.012 µM; at AuroraB, 0.007 µM.
`COc1cc2nccc(Oc3ccc(Nc4nnc(-c5ccccc5)c5ccccc45)cc3)c2cc1OC` [compound 90, N-(4-((6,7-bis(methyloxy)-4-quinolinyl)oxy)phenyl)-4-phenyl-1-phthalazinamine]: the IC50 at AuroraA-TPX2 stood at 0.019 µM; at AuroraB, 0.025 µM.
Turning to `COc1ccc2c(Oc3ccc(Nc4nnc(-c5ccccc5)c5ccccc45)cc3)ccnc2c1` [compound 91, N-(4-((7-(methyloxy)-4-quinolinyl)oxy)phenyl)-4-phenyl-1-phthalazinamine], the IC50 worked out at 0.054 µM on AuroraA-TPX2 and 0.012 µM at AuroraB.
In the case of `COc1cnc2c(Oc3ccc(Nc4nnc(N5CCN6CCCC6C5)c5ccccc45)cc3)ccnc2c1` (centres unmarked) [compound 92, 4-(hexahydropyrrolo[1,2-a]pyrazin-2(1H)-yl)-N-(4-((7-(methyloxy)-1,5-naphthyridin-4-yl)oxy)phenyl)-1-phthalazinamine], the IC50 at AuroraA-TPX2 was 0.007 µM; at AuroraB, 0.003 µM.
In the case of `N#Cc1ccc2c(Oc3ccc(Nc4nnc(-c5cccc(O)c5)c5ccccc45)cc3)ccnc2c1` [compound 93, 4-((4-((4-(3-hydroxyphenyl)-1-phthalazinyl)amino)phenyl)oxy)-7-quinolinecarbonitrile], the IC50 at AuroraA-TPX2 was 0.008 µM; on AuroraB it was 0.001 µM.
In the same order, the values of `CN1CCN(c2nnc(Nc3ccc(Oc4ccnc5cc(C#N)ccc45)cc3)c3ccccc23)CC1` [compound 94, 4-((4-((4-(4-methyl-1-piperazinyl)-1-phthalazinyl)amino)phenyl)oxy)-7-quinolinecarbonitrile] are 0.027 µM and 0.001 µM.
In the case of `Cc1csc(-c2nnc(Nc3ccc(Oc4ccnc5cc(C(N)=O)ccc45)cc3)c3ccccc23)n1` [compound 95, 4-((4-((4-(4-methyl-1,3-thiazol-2-yl)-1-phthalazinyl)amino)phenyl)oxy)-7-quinolinecarboxamide], the IC50 is 0.027 µM on AuroraA-TPX2 and 0.002 µM at AuroraB.
With `COc1cc2nccc(Oc3ccc(Nc4nnc(-c5ccccc5)c5ccccc45)cc3)c2cn1` [compound 96, N-(4-((7-(methyloxy)-1,6-naphthyridin-4-yl)oxy)phenyl)-4-phenyl-1-phthalazinamine], the IC50 on AuroraA-TPX2 came out at 0.026 µM; at AuroraB, 0.005 µM.
Regarding `COc1cnc2c(Oc3ccc(Nc4nnc(N5CCN6CCC[C@H]6C5)c5ccccc45)cc3)ccnc2c1` [compound 97, 4-((8aS)-hexahydropyrrolo[1,2-a]pyrazin-2(1H)-yl)-N-(4-((7-(methyloxy)-1,5-naphthyridin-4-yl)oxy)phenyl)-1-phthalazinamine], the values for the IC50 on AuroraA-TPX2 and on AuroraB were 0.01 µM and 0.002 µM, respectively.
Turning to `COc1cc2ncnc(Oc3ccc(Nc4nnc(-c5ccccc5)c5ccccc45)cc3)c2cc1OC` [compound 98, N-(4-((6,7-bis(methyloxy)-4-quinazolinyl)oxy)phenyl)-4-phenyl-1-phthalazinamine], the IC50 on AuroraA-TPX2 is 0.016 µM; on AuroraB, 0.007 µM.
`COc1cnc2c(Oc3ccc(Nc4nnc(-c5cccc(OC)n5)c5ccccc45)cc3)ccnc2c1` [compound 99, N-(4-((7-(methyloxy)-1,5-naphthyridin-4-yl)oxy)phenyl)-4-(6-(methyloxy)-2-pyridinyl)-1-phthalazinamine]: the IC50 at AuroraA-TPX2 was determined as 0.01 µM; at AuroraB, 0.002 µM.
As for `COc1ccc2c(Oc3ccc(Nc4nnc(-c5cccc(OC)n5)c5ccccc45)cc3)ccnc2c1` [compound 100, 4-(6-(methyloxy)-2-pyridinyl)-N-(4-((7-(methyloxy)-4-quinolinyl)oxy)phenyl)-1-phthalazinamine], the IC50 at AuroraA-TPX2 came to 0.038 µM; on AuroraB it was 0.006 µM.
With `COc1cccc(-c2nnc(Nc3ccc(Oc4ccnc5cc(OC)c(OC)cc45)cc3)c3ccccc23)n1` [compound 101, N-(4-((6,7-bis(methyloxy)-4-quinolinyl)oxy)phenyl)-4-(6-(methyloxy)-2-pyridinyl)-1-phthalazinamine], the IC50 on AuroraA-TPX2 and at AuroraB was 0.01 µM each time.
`COc1cccc(-c2nnc(Nc3ccc(Oc4ccnc5cc(C#N)ccc45)cc3)c3ccccc23)n1` [compound 102, 4-((4-((4-(6-(methyloxy)-2-pyridinyl)-1-phthalazinyl)amino)phenyl)oxy)-7-quinolinecarbonitrile]: the figures for the IC50 on AuroraA-TPX2 and at AuroraB were 0.028 µM and 0.003 µM, respectively.
`COc1cc2nccc(Oc3ccc(Nc4nnc(-c5ccc(C)cn5)c5ccccc45)cc3)c2cn1` [compound 103, N-(4-((7-(methyloxy)-1,6-naphthyridin-4-yl)oxy)phenyl)-4-(5-methyl-2-pyridinyl)-1-phthalazinamine]: the IC50 amounted to 0.035 µM on AuroraA-TPX2 and 0.004 µM at AuroraB.
As for `COc1cc2nccc(Sc3ccc(Nc4nnc(-c5ccccc5)c5ccccc45)cc3)c2cc1OC` [compound 104, N-(4-((6,7-bis(methyloxy)-4-quinolinyl)thio)phenyl)-4-phenyl-1-phthalazinamine], the IC50 at AuroraA-TPX2 worked out at 0.036 µM; at AuroraB it was 0.042 µM.
Turning to `N#Cc1ccc2c(Oc3ccc(Nc4nnc(-c5ccccc5)c5ccccc45)cc3)ccnc2c1` [compound 105, 4-((4-((4-phenyl-1-phthalazinyl)amino)phenyl)oxy)-7-quinolinecarbonitrile], the IC50 is 0.039 µM on AuroraA-TPX2 and 0.003 µM at AuroraB.
Turning to `COc1cc2nccc(Oc3ccc(Nc4nnc(-c5ccc(C(C)(C)C)cc5)c5ccccc45)cc3)c2cc1OC` [compound 106, N-(4-((6,7-bis(methyloxy)-4-quinolinyl)oxy)phenyl)-4-(4-(1,1-dimethylethyl)phenyl)-1-phthalazinamine], the IC50 at AuroraA-TPX2 turned out to be 0.01 µM; on AuroraB, 0.038 µM.
On to `COc1cnc2c(Oc3ccc(Nc4nnc(-c5ccccc5)cc4C)cc3)ccnc2c1` [compound 107, 4-methyl-N-(4-((7-(methyloxy)-1,5-naphthyridin-4-yl)oxy)phenyl)-6-phenyl-3-pyridazinamine], for which the IC50 at AuroraA-TPX2 came out at 0.018 µM; at AuroraB it was 0.005 µM.
In the same order, the values of `CCc1cc(-c2ccccc2)nnc1Nc1ccc(Oc2ccnc3cc(OC)cnc23)cc1` [compound 108, 4-ethyl-N-(4-((7-(methyloxy)-1,5-naphthyridin-4-yl)oxy)phenyl)-6-phenyl-3-pyridazinamine] are 0.016 µM and 0.004 µM.
Turning to `COc1cc2nccc(Oc3ccc(Nc4nnc(N5CCN(C)CC5)c5ccccc45)cc3)c2cn1` [compound 109, N-(4-((7-(methyloxy)-1,6-naphthyridin-4-yl)oxy)phenyl)-4-(4-methyl-1-piperazinyl)-1-phthalazinamine], the results for the IC50 on AuroraA-TPX2 and on AuroraB were 0.06 µM and 0.001 µM, respectively.
Turning to `COc1cc2nccc(Oc3ccc(Nc4nnc(-c5cccc(C)n5)c5ccccc45)cc3)c2cn1` [compound 110, N-(4-((7-(methyloxy)-1,6-naphthyridin-4-yl)oxy)phenyl)-4-(6-methyl-2-pyridinyl)-1-phthalazinamine], the figures for the IC50 on AuroraA-TPX2 and at AuroraB were 0.043 µM and 0.002 µM, respectively.
